Laboratory results published in PubChem BioAssay (NCI).
Values joined by “and” are separate entries in the source; they are usually repeats but may differ in a detail not shown here. Equal values may be shown once.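 Compound exposure: 48 hours, 5 concentrations, 96-well plates. At the GI50, growth is halved. Definition used: TGI = concentration required for complete inhibition of growth.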

Assays:
Experiment in all cases: DTP human tumour cell line panel, 48 h
HCT-15 colon = test system: HCT-15 colon
HL-60(TB) leukemia = test system: HL-60(TB) leukemia
LOX IMVI melanoma = test system: LOX IMVI melanoma
NCI-H460 lung = test system: NCI-H460 lung
NCI/ADR-RES ovarian = test system: NCI/ADR-RES ovarian
OVCAR-4 ovarian = test system: OVCAR-4 ovarian
PC-3 prostate = test system: PC-3 prostate
SK-OV-3 ovarian = test system: SK-OV-3 ovarian
SNB-19 CNS = test system: SNB-19 CNS
UO-31 renal = test system: UO-31 renal

Row | Compound | TGI (HCT-15 colon) | TGI (HL-60(TB) leukemia) | TGI (LOX IMVI melanoma) | TGI (NCI-H460 lung) | TGI (NCI/ADR-RES ovarian) | TGI (OVCAR-4 ovarian) | TGI (PC-3 prostate) | TGI (SK-OV-3 ovarian) | TGI (SNB-19 CNS) | TGI (UO-31 renal) | GI50 (HCT-15 colon) | GI50 (HL-60(TB) leukemia) | GI50 (LOX IMVI melanoma) | GI50 (NCI-H460 lung) | GI50 (NCI/ADR-RES ovarian) | GI50 (OVCAR-4 ovarian) | GI50 (PC-3 prostate) | GI50 (SK-OV-3 ovarian) | GI50 (SNB-19 CNS) | GI50 (UO-31 renal)
1 | CC(=O)OCc1ccc2c(c1)C(O)NC(=O)O2 (centres undefined) | > 100 µM | > 100 µM | > 100 µM | > 100 µM | > 100 µM | > 100 µM | > 100 µM | > 100 µM | > 100 µM | > 100 µM | – | – | – | – | – | – | – | – | – | –
2 | O=C1c2c(F)c(F)c(F)c(F)c2C(=O)N1c1ccc(F)cc1F | 7.43 µM | 0.891 µM | 5.11 µM | > 51 µM | 30.5 µM | 53.3 µM | 27.2 µM | 50.2 µM | 39.8 µM | > 48 µM | 2570 nM | 403 nM | 1500 nM | 9350 nM | 7550 nM | 16900 nM | 6210 nM | 20700 nM | 16800 nM | 10500 nM
3 | COc1cc(-c2nn(-c3cccc(NC(=O)c4ccccc4)c3)cc2-c2ccncc2)ccc1Cl | > 100 µM | – | > 100 µM | > 33.2 µM | > 100 µM | > 100 µM | > 33.5 µM | > 100 µM | > 100 µM | – | 579 nM | 376 nM | 567 nM | 366 nM | 360 nM | 1110 nM | 333 nM | 1190 nM | 1370 nM | 400 nM
4 | O=C(Nc1cccc(C(F)(F)F)c1)Nc1cccc(C(F)(F)F)c1 | 3.41 µM | 5.86 µM | 2.28 µM | 5.73 µM | 4.84 µM | 13.7 µM | 12.5 µM | 6.34 µM | 9.93 µM | 4.21 µM | 464 nM | 1840 nM | 1000 nM | 441 nM | 651 nM | 679 nM | 374 nM | 1890 nM | 658 nM | 649 nM
5 | O=[N+]([O-])c1cc([N+](=O)[O-])c(C(F)(F)F)cc1NN=C(c1ccc(O)cc1)c1ccc(O)cc1 | 11.7 µM | 11.8 µM | 3.21 µM | 5.13 µM | 65.4 µM | 19.2 µM | 78 µM | 14.6 µM | 16.6 µM | 13.3 µM | 2840 nM | 3120 nM | 1570 nM | 2050 nM | 4440 nM | 3250 nM | 3110 nM | 4250 nM | 4670 nM | 3150 nM
6 | c1ccc(Nc2ncc(-c3ccccc3)o2)cc1 | > 25 µM | > 25 µM | > 25 µM | > 25 µM | > 25 µM | > 25 µM | > 25 µM | > 25 µM | > 25 µM | > 25 µM | 24300 nM | 24000 nM | 22600 nM | 25000 nM | > 25000 nM | > 21100 nM | > 23200 nM | > 25000 nM | > 25000 nM | 9950 nM
7 | COc1ccc2ncnc(Nc3ccc(OCc4ccccc4)cc3)c2c1 | > 25 µM | 16.8 µM | > 25 µM | > 25 µM | > 25 µM | > 25 µM | > 25 µM | > 23.6 µM | > 25 µM | > 17 µM | 5610 nM | 7060 nM | 7850 nM | 7580 nM | 7560 nM | 7380 nM | 8540 nM | 3410 nM | 9780 nM | 3620 nM
8 | O=C1OCC2=C1C(c1cccc(Br)c1)c1cc3c(cc1N2CCO)OCCO3 (centres undefined) | > 50 µM | 0.362 µM | 9.28 µM | 2.21 µM | 0.273 µM | > 50 µM | 8.74 µM | 4.04 µM | > 50 µM | 36.5 µM | 76.6 nM | 45.2 nM | 107 nM | 58.8 nM | 63.5 nM | 131 nM | 54.6 nM | 67 nM | 84.6 nM | 127 nM
9 | OC(c1cc(C(F)(F)F)nc2c(C(F)(F)F)cccc12)C1CCCCN1 (centres undefined) | 10.9 µM | 4.6 µM | 3.15 µM | 4.14 µM | 5.95 µM | 7.07 µM | 5.88 µM | 4.32 µM | 8.22 µM | 12.3 µM | 3510 nM | 2460 nM | 1650 nM | 2070 nM | 2310 nM | 2810 nM | 2170 nM | 1950 nM | 2750 nM | 2630 nM
10 | Cc1ccc(-c2nc(N3CCNCC3)c3oc(-c4ccc(C)cc4)nc3n2)cc1 | 3.28 µM | 3.26 µM | 3.46 µM | 4.41 µM | 3.81 µM | 10.6 µM | 3.43 µM | > 59.2 µM | 7.02 µM | 3.57 µM | 1720 nM | 1170 nM | 1880 nM | 2030 nM | 2000 nM | 2220 nM | 1770 nM | > 43200 nM | 2600 nM | 1760 nM
11 | C=CC(=O)Nc1cc(Nc2nccc(-c3cn(C)c4ccccc34)n2)c(OC)cc1N(C)CCN(C)C | 3.69 µM and 3.27 µM | 3.33 µM and 3.99 µM | 3.55 µM and 2.86 µM | 5.15 µM and 6.09 µM | 9.57 µM and 8.18 µM | 20.5 µM and > 10 µM | 12.1 µM and 5.55 µM | 18.1 µM and > 10 µM | 18.4 µM and > 10 µM | 4.09 µM and 2.08 µM | 1610 nM and 1420 nM | 1470 nM and 1710 nM | 1750 nM and 1410 nM | 2180 nM and 2140 nM | 1850 nM and 1450 nM | 2740 nM and 2420 nM | 2740 nM and 2110 nM | 50.1 nM and 31.1 nM | 2690 nM and 2060 nM | 604 nM and 444 nM
12 | COc1ccc(C(c2cc(OC)c(OC)c(OC)c2)n2cncn2)cc1O (centres undefined) | > 100 µM | 0.687 µM | > 100 µM | > 100 µM | > 100 µM | > 100 µM | > 100 µM | > 100 µM | > 100 µM | > 100 µM | 438 nM | 261 nM | 523 nM | 414 nM | 1180 nM | 3020 nM | 431 nM | 402 nM | 578 nM | 903 nM
13 | COc1c2ccccc2c(OC)c2[nH]c(=O)ccc12 | 4.53 µM | > 92.4 µM | > 23 µM | 4 µM | > 100 µM | > 100 µM | > 43.7 µM | > 100 µM | 4.11 µM | 97.3 µM | 1780 nM | 12400 nM | 1840 nM | 1510 nM | 6510 nM | 11100 nM | 5530 nM | 65100 nM | 2020 nM | 8130 nM
14 | Nc1nc2[nH]cc(CCc3ccc(C(=O)N[C@@H](CCC(=O)O)C(=O)O)cc3)c2c(=O)[nH]1 | > 100 µM | > 100 µM | > 100 µM | > 100 µM | > 100 µM | > 100 µM | > 100 µM | > 100 µM | > 100 µM | > 100 µM | – | 684 nM | 111 nM | 272 nM | > 100000 nM | – | > 51900 nM | – | – | 190 nM
15 | COC(=O)/C=C/c1cc(OC(C)=O)c2c(c1)[C@@H](C(=O)OC)[C@H](c1ccc(OC(C)=O)c(OC(C)=O)c1)O2 | > 100 µM | 0.0934 µM | 40.3 µM | 15 µM | 1.93 µM | 38.2 µM | 54.7 µM | 41.9 µM | > 100 µM | 38 µM | 42.1 nM | 28.8 nM | 61.5 nM | 299 nM | 42.3 nM | 340 nM | 316 nM | 417 nM | 431 nM | 131 nM
16 | NC(=S)N/N=C1\c2cc(Cl)ccc2-c2c1cc(Cl)cc2[N+](=O)[O-] | > 100 µM | 51.9 µM | > 100 µM | 20.7 µM | > 100 µM | 8.35 µM | > 100 µM | > 100 µM | > 100 µM | 70.2 µM | 4330 nM | 6150 nM | 9350 nM | 3270 nM | 4760 nM | 1920 nM | 3210 nM | 9400 nM | 4240 nM | 4810 nM
17 | CN1CCN(C(=O)COc2ccc(C34CC5CC(CC(C5)C3)C4)cc2)CC1 | 21 µM | 23.2 µM | 25 µM | 27.5 µM | 84.4 µM | 76.9 µM | 21.6 µM | 30.4 µM | 26.8 µM | 25 µM | 7330 nM | 4700 nM | 12300 nM | 13200 nM | 21700 nM | 20800 nM | 4870 nM | 14000 nM | 13600 nM | 12400 nM
18 | COc1ccccc1NC(=O)c1cc2cc(Br)ccc2cc1O | 8.54 µM | > 22.1 µM | 8.8 µM | 6.77 µM | 12.1 µM | 21.4 µM | 6.79 µM | 6.08 µM | 16.1 µM | 7.85 µM | 2370 nM | 2140 nM | 2690 nM | 2150 nM | 2750 nM | 3110 nM | 1830 nM | 1750 nM | 3460 nM | 1570 nM
19 | C=C1C(=O)O[C@H]2[C@H]1CC/C(CNC(=O)c1cc3ccccc3[nH]1)=C\CC[C@@]1(C)O[C@@H]21 | 1.72 µM | 5.8 µM | 1.99 µM | 17.3 µM | 12.3 µM | 5.53 µM | 4.78 µM | 23.8 µM | 23 µM | 2.9 µM | 439 nM | 2010 nM | 580 nM | 4090 nM | 3080 nM | 1730 nM | 2030 nM | 11600 nM | 7730 nM | 1290 nM
